# According to PubChem BioAssay (NCI):
#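 Five concentrations, 48 hours, 96-well plates. Definition used: TGI = concentration required for complete inhibition of growth.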
# Assays:
# Assay in all cases: NCI tumour cell line growth inhibition, 48 h
# [1] = test system: UO-31 renal
# [2] = test system: HOP-62 NSCLC
# [3] = test system: EKVX NSCLC
# [4] = test system: P388 leukemia
# [5] = test system: KM12 colon
# [6] = test system: CCRF-CEM leukemia
# [7] = test system: SNB-75 CNS
# [8] = test system: NCI-H460 lung
# [9] = test system: COLO 205 colon
# [10] = test system: SK-MEL-5 melanoma
# [11] = test system: IGROV1 ovarian
# [12] = test system: SK-MEL-2 melanoma
# [13] = test system: UACC-257 melanoma
# [14] = test system: SNB-19 CNS
# [15] = test system: MALME-3M melanoma
# [16] = test system: HT29 colon
# [17] = test system: XF 498 CNS
# [18] = test system: SF-268 CNS
# [19] = test system: OVCAR-4 ovarian
# [20] = test system: HOP-92 NSCLC
# [21] = test system: HOP-18 NSCLC
# [22] = test system: DMS 273 small cell lung
# [23] = test system: OVCAR-8 ovarian
# [24] = test system: U251 CNS
# [25] = test system: RPMI-8226 leukemia
# [26] = test system: P388/ADR leukemia
# [27] = test system: A549 NSCLC
# [28] = test system: MCF7 breast
# [29] = test system: OVCAR-3 ovarian
# [30] = test system: SF-295 CNS
# [31] = test system: SF-539 CNS
# [32] = test system: SK-MEL-28 melanoma
# [33] = test system: SN12K1 renal
# [34] = test system: SNB-78 CNS
# [35] = test system: NCI-H226 lung
# [36] = test system: SK-OV-3 ovarian
# [37] = test system: NCI-H23 lung
# [38] = test system: M19-MEL melanoma
# [39] = test system: DLD-1 colon
# [40] = test system: SW-620 colon
# [41] = test system: HCC-2998 colon
# [42] = test system: HCT-116 colon
# [43] = test system: A498 renal
# [44] = test system: NCI-H522 lung
# [45] = test system: OVCAR-5 ovarian
# [46] = test system: K-562 leukemia
# [47] = test system: HCT-15 colon
# [48] = test system: RXF 393 renal
# [49] = test system: SN12C renal
# [50] = test system: CAKI-1 renal
# [51] = test system: MOLT-4 leukemia
# [52] = test system: KM20L2 colon
# [53] = test system: HL-60(TB) leukemia
# [54] = test system: LOX IMVI melanoma
# [55] = test system: NCI/ADR-RES ovarian
# [56] = test system: UACC-62 melanoma
structure (smiles),measurement,setting,value
CC1C(=O)C(C)C(c2ccco2)N(N=O)C1c1ccco1 (stereo unspecified),TGI,[1],> 100 µM
same,TGI,[2],> 100 µM
same,TGI,[3],> 100 µM
same,TGI,[4],> 100 µM
same,TGI,[5],> 100 µM
same,TGI,[6],> 100 µM
same,TGI,[7],> 100 µM
same,TGI,[8],> 100 µM
same,TGI,[9],> 100 µM
same,TGI,[10],> 100 µM
same,TGI,[11],> 100 µM
same,TGI,[12],> 100 µM
same,TGI,[13],> 100 µM
same,TGI,[14],> 100 µM
same,TGI,[15],> 100 µM
same,TGI,[16],> 100 µM
same,TGI,[17],50.5 µM
same,TGI,[18],> 100 µM
same,TGI,[19],> 100 µM
same,TGI,[20],> 100 µM
same,TGI,[21],> 100 µM
same,TGI,[22],> 100 µM
same,TGI,[23],> 100 µM
same,TGI,[24],> 100 µM
same,TGI,[25],> 100 µM
same,TGI,[26],> 100 µM
same,TGI,[27],> 100 µM
same,TGI,[28],> 100 µM
same,TGI,[29],> 100 µM
same,TGI,[30],> 100 µM
same,TGI,[31],> 100 µM
same,TGI,[32],> 100 µM
same,TGI,[33],> 100 µM
same,TGI,[34],> 100 µM
same,TGI,[35],> 100 µM
same,TGI,[36],> 100 µM
same,TGI,[37],> 100 µM
same,TGI,[38],> 100 µM
same,TGI,[39],> 100 µM
same,TGI,[40],> 100 µM
same,TGI,[41],> 100 µM
same,TGI,[42],> 100 µM
same,TGI,[43],> 100 µM
same,TGI,[44],> 100 µM
same,TGI,[45],> 100 µM
same,TGI,[46],> 100 µM
same,TGI,[47],> 100 µM
same,TGI,[48],> 100 µM
same,TGI,[49],> 100 µM
same,TGI,[50],> 100 µM
same,TGI,[51],> 100 µM
same,TGI,[52],> 100 µM
same,TGI,[53],> 100 µM
same,TGI,[54],> 100 µM
same,TGI,[55],> 100 µM
same,TGI,[56],> 100 µM
